{"source": "patent US11021463B2", "about": "“Therapeutic inhibitory compounds” (Attune Pharmaceuticals, Inc., priority 2013, dated 2021)", "target": "human plasma kallikrein (Homo sapiens (Human), UniProt P03952)", "sequence (P03952 391-638 limits assumed)": "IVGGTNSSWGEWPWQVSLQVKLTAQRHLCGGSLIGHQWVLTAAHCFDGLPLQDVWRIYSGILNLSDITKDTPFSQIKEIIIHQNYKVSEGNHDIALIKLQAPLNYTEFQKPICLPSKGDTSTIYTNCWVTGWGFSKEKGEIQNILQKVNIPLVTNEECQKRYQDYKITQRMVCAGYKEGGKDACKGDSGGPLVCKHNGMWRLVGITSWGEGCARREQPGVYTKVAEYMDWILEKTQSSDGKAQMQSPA", "sequence (P03952 20-390 partner limits assumed)": "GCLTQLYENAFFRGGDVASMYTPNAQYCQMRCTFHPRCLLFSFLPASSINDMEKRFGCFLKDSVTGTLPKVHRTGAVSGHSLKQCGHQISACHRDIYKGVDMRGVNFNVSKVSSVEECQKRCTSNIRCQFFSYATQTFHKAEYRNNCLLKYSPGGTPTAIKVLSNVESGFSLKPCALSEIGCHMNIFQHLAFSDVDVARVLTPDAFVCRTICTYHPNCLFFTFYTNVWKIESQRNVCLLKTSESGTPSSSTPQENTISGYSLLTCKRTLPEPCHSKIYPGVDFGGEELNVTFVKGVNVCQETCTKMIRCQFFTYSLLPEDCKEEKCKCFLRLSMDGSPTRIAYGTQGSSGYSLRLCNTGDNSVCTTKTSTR", "test": "In vitro enzyme inhibition of human plasma kallikrein (Pro-Phe-Arg-AMC cleavage)", "format": "biochemical", "conditions": "human Plasma Kallikrein (Abcam), Pro-Phe-Arg-AMC substrate, 37° C., pH 7.5; read-out: hPK IC50", "protocol": "The ability of the compounds disclosed herein to inhibit human plasma kallikrein activity was quantified according to the procedures below.\nA 10 mM solution of the test compound was made in DMSO. […] A control tube containing only DMSO is included. 16 μL of each compound test solution was combined with 384 μL of assay buffer (50 mM Tris-HCl pH 7.5, 150 mM NaCl, 0.01% Triton X-100) to yield a “4× test compound buffer stock”.\nThese solutions are hereby referred to as 4× hPK and 2×PFR-AMC, respectively.\n50 μL was removed from this mixture and placed into duplicate wells on a Microfluor 1Black U-bottom microtiter plate (Thermo Scientific). This plate was incubated for 5 minutes at 37° C. To each well, 50 μL of pre-warmed 2×PFR-AMC was added to start the enzymatic reaction. Cleavage of PFR-AMC was monitored in a Biotek Synergy H4 reader set at 37° C. Readings are taken every 43 seconds for 1 hour. […] The IC50 is calculated using the Gen5 (Biotek Instruments).\nThe ability of the compounds in Table 3 to inhibit human plasma kallikrein activity was determined.", "data": [{"substance": "N-((6-amino-2,4-dimethylpyridin-3-yl)methyl)-2-((5-methyl-3a,7a-dihydro-1H-indazol-1-yl)methyl)isonicotinamide [Example 108]", "values": [{"measurement": "IC50", "result": "< 100", "unit": "nM"}]}]}
